Assay results: patent publication US8841276B2, “Fulvene and fulvalene analogs and their use in treating cancers” (Emory University, priority 2007, dated 2014)

How the values were obtained:
Nox2 enzyme = molecular target: T1, Nox2 enzyme (Homo sapiens, UniProt P04839); assay: Inhibition of Nox2 enzyme: H2O2 production in PMA-stimulated Cos-phox cells (homovanillic acid assay); type: cell-based; details: 1 μM, 5 μM, or 20 μM, FIG. 1
T1 construct: expressed in transfected cells; host or cells: Cos-phox cells (COS-7 derived, per the cited Price et al. 2002; own knowledge)
T1 sequence (P04839 2-570 limits assumed): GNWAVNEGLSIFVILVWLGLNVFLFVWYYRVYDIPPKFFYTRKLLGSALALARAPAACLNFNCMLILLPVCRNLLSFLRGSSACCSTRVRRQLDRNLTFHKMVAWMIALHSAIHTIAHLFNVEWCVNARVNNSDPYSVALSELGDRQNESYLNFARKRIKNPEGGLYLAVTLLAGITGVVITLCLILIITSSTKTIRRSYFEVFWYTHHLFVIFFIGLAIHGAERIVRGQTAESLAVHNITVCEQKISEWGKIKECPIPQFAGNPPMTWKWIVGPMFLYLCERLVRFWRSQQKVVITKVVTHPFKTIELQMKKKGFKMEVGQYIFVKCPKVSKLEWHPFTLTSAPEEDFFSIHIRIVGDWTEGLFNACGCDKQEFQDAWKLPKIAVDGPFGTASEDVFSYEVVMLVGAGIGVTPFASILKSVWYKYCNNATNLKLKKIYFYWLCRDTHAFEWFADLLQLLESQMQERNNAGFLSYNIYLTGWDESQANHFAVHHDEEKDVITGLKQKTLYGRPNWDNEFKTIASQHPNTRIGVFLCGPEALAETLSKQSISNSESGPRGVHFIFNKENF
T1 sequence (P13498 2-195 partner limits assumed): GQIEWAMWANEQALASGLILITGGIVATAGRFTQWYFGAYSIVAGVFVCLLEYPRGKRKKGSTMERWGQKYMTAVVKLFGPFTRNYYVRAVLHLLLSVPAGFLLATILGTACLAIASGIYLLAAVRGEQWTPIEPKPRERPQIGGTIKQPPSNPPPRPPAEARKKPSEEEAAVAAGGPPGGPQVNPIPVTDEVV
Method: Various test compounds were examined for activity against Nox2 enzyme by determining hydrogen peroxide (H2O2) production in phorbol 12-myristate 13-acetate (PMA)-stimulated Cos-phox cells treated with different concentrations of vehicle control or a test compound listed in Table 1.
Cos-phox cells have been described previously in Price et al., Blood, 99: 2653-61 (2002), which is incorporated herein by reference.
H2O2 release was measured using the homovanillic acid assay as described previously in Martyn et al., Cellular Signalling, 18:69-82 (2006) and Perry et al., J. Invest. Dermatol., 126:2316-22 (2006), which are incorporated herein by reference. Briefly, 1.5-1.75×10^5 cells/well of a 12-well plate were seeded with Cos-phox cells. The following day, cells were washed once with Hank's balanced salt solution, stimulated with […] phorbol 12-myristate 13-acetate (PMA), and then preincubated for 15 minutes with either vehicle control or different concentrations (i.e., 1 μM, 5 μM, or 20 μM) of test compound no. 8, 10, 15, 16, 17, or 18 in 1 ml of media. The cells were then washed once with Hank's balanced salt solution. Vehicle control or different concentrations of test compound no. […] Fluorescence was read on a BioTek Synergy HT (BioTek Instruments Inc., Winooski, Vt., CA) with an excitation of 320 nm and emission of 440 nm. […]

[1] = tested on: light-induced retinal function loss; design: species or system Balb-C mice; details: mouse, in vivo
Method: Balb-C mice were exposed to dim (20 lux) or bright (10,000 lux) white light for 6 hours. Mice were injected with Fulvene-5, a triphenylmethane that inhibits NADPH oxidase, dissolved in vehicle (intralipid-DMSO) or vehicle alone. Intraperitoneal injections were given daily for two weeks. Electroretinograms (ERGs) were taken 0, 7, and 14 days following light exposure. Mice were exposed to either dim light (control) or bright light of an intensity that causes retinal degeneration (Light Induced Retinal Degeneration; LIRD). This is a classic rodent model of retinal degeneration. For each lighting condition, half the animals were injected with vehicle and the other half were injected with Fulvene 5. Electroretinograms (ERGs) of the treated mice were measured at one week post-exposure. An ERG is a measure of the change in electrical potential across the eyeball in response to a flash of light, and is used as an indication of retinal function.

Row | Suppression of ERG b-wave amplitude [1] | Compound | Inhibition of Nox2 enzyme (production of H2O2 relative to untreated control) (Nox2 enzyme) | Effect of bright light exposure on retinal function as measured by ERG ([1]; ip)
1 |  | CN(C)C=C1C=CC=C1 [compound 8] | inhibited Nox2 enzyme in a dose-dependent manner | 
2 | no suppression of ERG amplitude | Cc1[nH]cnc1C=C1C=CC=C1 [Test compound 10, 4-(cyclopenta-2,4-dienylidinemethyl)-5-methyl-1H-imidazole] |  | precluded the damaging effects of bright light exposure on retinal function
